{
  "source": "patent US7138361B2",
  "about": "“Herbicidal heterocycles” (E. I. du Pont de Nemours and Company, priority 2000, dated 2006)",
  "type_in_all_cases": "in vivo",
  "key": {"Sunflower [1]": {"system": "Sunflower", "assay": "Test C preemergence", "conditions": "Rate 250 g/ha, visual evaluation after 12 to 14 days"}, "[2]": {"system": "crabgrass (Digitaria sanguinalis)", "assay": "Test B postemergence", "conditions": "13 to 15 days", "method_in_brief": "(§1)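 Ratings on a 0 to 100 visual scale (100 complete control) compare treated plants with controls 13 to 15 days after application. Treatments were pre- or postemergence sprays of compound in non-phytotoxic solvent with surfactant.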"}, "wild oat (Avena fatua)": {"system": "wild oat (Avena fatua)", "assay": "Test B postemergence", "conditions": "13 to 15 days", "method_in_brief": "as §1"}, "[3]": {"system": "lambsquarters (Chenopodium album)", "assay": "Test B postemergence", "conditions": "13 to 15 days", "method_in_brief": "as §1"}, "[4]": {"system": "cocklebur (Xanthium strumarium)", "assay": "Test B postemergence", "conditions": "13 to 15 days", "method_in_brief": "as §1"}, "Nightshade": {"system": "Nightshade", "assay": "Test C preemergence"}, "[5]": {"system": "pigweed (Amaranthus retroflexus)", "assay": "Test C preemergence", "method_in_brief": "(§2)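 Test chemicals, formulated in a non-phytotoxic solvent mixture with surfactant, were applied preemergence to planted seeds or postemergence to plants 2 to 18 cm tall (1- to 4-leaf stage). After 12 to 14 days in a greenhouse, injury was visually rated against untreated controls on a 0–100 scale.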"}, "[6]": {"system": "woolly cupgrass (Eriochloa villosa)", "assay": "Test C preemergence", "method_in_brief": "as §2"}, "[7]": {"system": "bermudagrass (Cynodon dactylon)", "assay": "Test C preemergence", "method_in_brief": "as §2"}, "soybean (Glycine max)": {"system": "soybean (Glycine max)", "assay": "Test C preemergence", "method_in_brief": "as §2"}, "kochia (Kochia scoparia)": {"system": "kochia (Kochia scoparia)", "assay": "Test C preemergence", "method_in_brief": "as §2"}, "[8]": {"system": "velvetleaf (Abutilon theophrasti)", "assay": "Test C preemergence", "method_in_brief": "as §2"}, "Sunflower [9]": {"system": "Sunflower", "assay": "Test C preemergence"}, "[10]": {"system": "lambsquarters (Chenopodium album)", "assay": "Test C preemergence", "method_in_brief": "as §2"}, "[11]": {"system": "common ragweed (Ambrosia elatior)", "assay": "Test C preemergence", "method_in_brief": "as §2"}, "[12]": {"system": "johnsongrass (Sorghum halepense)", "assay": "Test C preemergence", "method_in_brief": "as §2"}, "[13]": {"system": "giant foxtail (Setaria faberii)", "assay": "Test C preemergence", "method_in_brief": "as §2"}, "[14]": {"system": "Surinam grass (Brachiaria decumbens)", "assay": "Test C preemergence", "method_in_brief": "as §2"}, "corn (Zea mays)": {"system": "corn (Zea mays)", "assay": "Test C preemergence", "method_in_brief": "as §2"}, "[15]": {"system": "cocklebur (Xanthium strumarium)", "assay": "Test C preemergence", "method_in_brief": "as §2"}, "[16]": {"conditions": "Rate 125 g/ha, scale 0 (no effect) to 100 (complete control)"}, "[17]": {"conditions": "Rate 500 g/ha, scale 0 to 100, 0 is no effect, 100 is complete control"}, "[18]": {"conditions": "Rate 62 g/ha, scale 0 to 100, 0 no effect, 100 complete control"}, "[19]": {"conditions": "Preemergence, Rate 500 g/ha, scale 0 to 100"}, "[20]": {"conditions": "preemergence, Rate 250 g/ha, visual evaluation after 12 to 14 days"}, "[21]": {"conditions": "preemergence, Rate 125 g/ha, scale 0 to 100, 0 no effect, 100 complete control"}},
  "data": [
    {"molecule": "O=C1C(n2ccc(C3CCC3)n2)OCN1c1cccc(C(F)(F)F)c1", "note": "(stereo not shown) [Compound 39]", "values": [
      {"measurement": "Plant response rating (0 to 100), Sunflower", "setting": "Sunflower [1]", "result": 0},
      {"measurement": "Plant response rating, Crabgrass", "setting": "[2]; [16]", "result": 0},
      {"measurement": "Plant response rating, Crabgrass", "setting": "[2]; [17]", "result": 70},
      {"measurement": "Plant response rating, Wild Oat", "setting": "wild oat (Avena fatua); [16]", "result": 0},
      {"measurement": "Plant response rating, Wild Oat", "setting": "wild oat (Avena fatua); [17]", "result": 0},
      {"measurement": "Plant response rating, Lambsquarters", "setting": "[3]; [16]", "result": 70},
      {"measurement": "Plant response rating, Lambsquarters", "setting": "[3]; [17]", "result": 90},
      {"measurement": "Plant response rating, Cocklebur", "setting": "[4]; [16]", "result": 0},
      {"measurement": "Plant response rating, Cocklebur", "setting": "[4]; [17]", "result": 0},
      {"measurement": "Plant response rating, Nightshade", "setting": "Nightshade; [18]", "result": 0},
      {"measurement": "Plant response rating, Nightshade", "setting": "Nightshade; Rate 125 g/ha, scale 0 to 100, 0 no effect, 100 complete control", "result": 0},
      {"measurement": "Plant response rating, Nightshade", "setting": "Nightshade; Rate 500 g/ha, scale 0 to 100", "result": 0},
      {"measurement": "Plant response rating, Pigweed", "setting": "[5]; [19]", "result": 100},
      {"measurement": "Plant response rating, Pigweed", "setting": "[5]; [18]", "result": 0},
      {"measurement": "Plant response rating (0 to 100), Pigweed", "setting": "[5]; [20]", "result": 0},
      {"measurement": "Plant response rating, Pigweed", "setting": "[5]; [21]", "result": 0},
      {"measurement": "Plant response rating, Cupgrass, Woolly", "setting": "[6]; [19]", "result": 100},
      {"measurement": "Plant response rating, Cupgrass, Woolly", "setting": "[6]; [18]", "result": 0},
      {"measurement": "Plant response rating (0 to 100), Cupgrass, Woolly", "setting": "[6]; [20]", "result": 90},
      {"measurement": "Plant response rating, Cupgrass, Woolly", "setting": "[6]; [21]", "result": 20},
      {"measurement": "Plant response rating, Bermudagrass", "setting": "[7]; [19]", "result": 100},
      {"measurement": "Plant response rating, Bermudagrass", "setting": "[7]; [18]", "result": 90},
      {"measurement": "Plant response rating (0 to 100 where 0 is no effect and 100 is complete control), Bermudagrass", "setting": "[7]; [20]", "result": 100},
      {"measurement": "Plant response rating, Bermudagrass", "setting": "[7]; [21]", "result": 90},
      {"measurement": "Plant response rating, Soybean", "setting": "soybean (Glycine max); [19]", "result": 0},
      {"measurement": "Plant response rating, Soybean", "setting": "soybean (Glycine max); [18]", "result": 0},
      {"measurement": "Plant response rating (0 to 100), Soybean", "setting": "soybean (Glycine max); [20]", "result": 0},
      {"measurement": "Plant response rating, Soybean", "setting": "soybean (Glycine max); [21]", "result": 0},
      {"measurement": "Plant response rating, Kochia", "setting": "kochia (Kochia scoparia); [19]", "result": 90},
      {"measurement": "Plant response rating, Kochia", "setting": "kochia (Kochia scoparia); [18]", "result": 0},
      {"measurement": "Plant response rating (0 to 100), Kochia", "setting": "kochia (Kochia scoparia); [20]", "result": 70},
      {"measurement": "Plant response rating, Kochia", "setting": "kochia (Kochia scoparia); [21]", "result": 50},
      {"measurement": "Plant response rating, Velvetleaf", "setting": "[8]; [19]", "result": 0},
      {"measurement": "Plant response rating, Velvetleaf", "setting": "[8]; [18]", "result": 0},
      {"measurement": "Plant response rating (0 to 100), Velvetleaf", "setting": "[8]; [20]", "result": 0},
      {"measurement": "Plant response rating, Velvetleaf", "setting": "[8]; [21]", "result": 0},
      {"measurement": "Plant response rating, Sunflower", "setting": "Sunflower [9]; [18]", "result": 0},
      {"measurement": "Plant response rating, Sunflower", "setting": "Sunflower [9]; Rate 500 g/ha, scale 0 to 100", "result": 0},
      {"measurement": "Plant response rating, Lambsquarters", "setting": "[10]; [19]", "result": 100},
      {"measurement": "Plant response rating, Lambsquarters", "setting": "[10]; [18]", "result": 100},
      {"measurement": "Plant response rating (0 to 100), Lambsquarters", "setting": "[10]; [20]", "result": 100},
      {"measurement": "Plant response rating, Lambsquarters", "setting": "[10]; [21]", "result": 100},
      {"measurement": "Plant response rating, Ragweed, Common", "setting": "[11]; [19]", "result": 20},
      {"measurement": "Plant response rating, Ragweed, Common", "setting": "[11]; [18]", "result": 0},
      {"measurement": "Plant response rating (0 to 100), Ragweed, Common", "setting": "[11]; [20]", "result": 0},
      {"measurement": "Plant response rating, Ragweed, Common", "setting": "[11]; [21]", "result": 0},
      {"measurement": "Plant response rating, Johnsongrass", "setting": "[12]; [19]", "result": 90},
      {"measurement": "Plant response rating, Johnsongrass", "setting": "[12]; [18]", "result": 0},
      {"measurement": "Plant response rating (0 to 100), Johnsongrass", "setting": "[12]; [20]", "result": 70},
      {"measurement": "Plant response rating, Johnsongrass", "setting": "[12]; [21]", "result": 0},
      {"measurement": "Plant response rating, Foxtail, Giant", "setting": "[13]; [19]", "result": 100},
      {"measurement": "Plant response rating, Foxtail, Giant", "setting": "[13]; [18]", "result": 0},
      {"measurement": "Plant response rating (0 to 100), Foxtail, Giant", "setting": "[13]; [20]", "result": 0},
      {"measurement": "Plant response rating, Foxtail, Giant", "setting": "[13]; [21]", "result": 0},
      {"measurement": "Plant response rating, Surinam grass", "setting": "[14]; [19]", "result": 80},
      {"measurement": "Plant response rating, Surinam grass", "setting": "[14]; [18]", "result": 0},
      {"measurement": "Plant response rating (0 to 100), Surinam grass", "setting": "[14]; [20]", "result": 0},
      {"measurement": "Plant response rating, Surinam grass", "setting": "[14]; [21]", "result": 0},
      {"measurement": "Plant response rating, Corn", "setting": "corn (Zea mays); [19]", "result": 70},
      {"measurement": "Plant response rating, Corn", "setting": "corn (Zea mays); [18]", "result": 0},
      {"measurement": "Plant response rating (0 to 100), Corn", "setting": "corn (Zea mays); [20]", "result": 0},
      {"measurement": "Plant response rating, Corn", "setting": "corn (Zea mays); [21]", "result": 0},
      {"measurement": "Plant response rating, Cocklebur", "setting": "[15]; [19]", "result": 0},
      {"measurement": "Plant response rating, Cocklebur", "setting": "[15]; [18]", "result": 0}
    ]}
  ]
}
